Measured values as given in patent publication US7662832B2, “Pyrrolo[2,3-c]pyridine derivatives and processes for the preparation thereof” (priority 2004, dated 2010).
Structures can show the parent of a compound that is named as a salt.

biological target: Proton Pump (H^+/K^+-ATPase) (Sus scrofa, UniProt P19156); test: Inhibitory effects on proton pump (H^+/K^+-ATPase) activity; assay type: biochemical; conditions: hog gastric vesicles; K^+ stimulated H^+/K^+-ATPase activity; 30 minutes at 37° C.
Sequence (P19156 2-1034 limits assumed): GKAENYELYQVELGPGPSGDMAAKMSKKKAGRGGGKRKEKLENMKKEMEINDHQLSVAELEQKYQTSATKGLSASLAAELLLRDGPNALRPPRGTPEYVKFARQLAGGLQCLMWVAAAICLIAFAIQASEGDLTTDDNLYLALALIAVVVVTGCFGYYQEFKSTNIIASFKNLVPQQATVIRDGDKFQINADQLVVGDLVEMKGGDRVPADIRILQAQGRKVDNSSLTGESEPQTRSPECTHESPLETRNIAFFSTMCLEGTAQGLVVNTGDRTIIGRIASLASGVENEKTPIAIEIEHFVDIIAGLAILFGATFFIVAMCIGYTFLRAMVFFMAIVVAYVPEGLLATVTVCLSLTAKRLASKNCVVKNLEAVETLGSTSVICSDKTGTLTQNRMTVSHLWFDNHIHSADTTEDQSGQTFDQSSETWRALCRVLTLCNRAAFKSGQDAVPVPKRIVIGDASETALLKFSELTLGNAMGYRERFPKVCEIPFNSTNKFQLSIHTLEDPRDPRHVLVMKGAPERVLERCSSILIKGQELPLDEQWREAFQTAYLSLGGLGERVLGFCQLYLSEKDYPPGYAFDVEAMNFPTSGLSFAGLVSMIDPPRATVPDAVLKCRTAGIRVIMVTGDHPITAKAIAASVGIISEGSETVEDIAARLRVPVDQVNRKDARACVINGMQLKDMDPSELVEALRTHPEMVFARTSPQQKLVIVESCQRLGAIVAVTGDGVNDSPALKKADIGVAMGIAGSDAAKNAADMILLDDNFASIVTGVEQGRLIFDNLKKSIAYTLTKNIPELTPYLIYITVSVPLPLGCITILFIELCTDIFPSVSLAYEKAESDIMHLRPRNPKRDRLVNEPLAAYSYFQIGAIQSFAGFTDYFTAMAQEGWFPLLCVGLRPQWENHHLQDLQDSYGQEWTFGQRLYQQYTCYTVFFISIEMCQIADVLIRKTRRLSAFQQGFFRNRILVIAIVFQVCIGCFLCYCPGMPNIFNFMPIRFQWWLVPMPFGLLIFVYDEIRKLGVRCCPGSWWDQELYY
Sequence (P18434 whole entry partner): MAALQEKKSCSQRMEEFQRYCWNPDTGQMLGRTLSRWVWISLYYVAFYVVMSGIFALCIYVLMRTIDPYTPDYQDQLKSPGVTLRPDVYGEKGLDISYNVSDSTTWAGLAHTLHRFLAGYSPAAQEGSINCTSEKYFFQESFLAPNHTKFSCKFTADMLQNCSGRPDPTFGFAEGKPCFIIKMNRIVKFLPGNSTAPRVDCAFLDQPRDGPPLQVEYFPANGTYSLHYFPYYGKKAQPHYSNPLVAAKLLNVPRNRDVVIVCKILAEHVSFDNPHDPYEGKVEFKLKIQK

Row | IC50 [nM] | SMILES
1 | 90 | Cc1c(C)n(Cc2ccccc2)c2c(NCc3ccc(F)cc3)nc(C(=O)N3CCOCC3)cc12 [Example 909, [1-benzyl-7-(4-fluorobenzylamino)-2,3-dimethyl-1H-pyrrolo[2,3-c]pyridin-5-yl]-(morpholin-4-yl)-methanone hydrochloride]
2 | 282 | CCn1nnnc1-c1cc2c(C)c(C)n(Cc3cccc(Cl)c3)c2c(N2CCc3ccccc3C2)n1 [Example 854, 2-[1-(3-chlorobenzyl)-2,3-dimethyl-5-(1-ethyl-1H-tetrazol-5-yl)-1H-pyrrolo[2,3-c]pyridin-7-yl]-1,2,3,4-tetrahydroisoquinoline]
3 | 1240 | Cc1ccccc1CNc1nccc2c(C)c(C)n(Cc3ccc(F)cc3)c12 [Example 219, 1-(4-fluorobenzyl)-2,3-dimethyl-7-(2-methylbenzylamino)-1H-pyrrolo[2,3-c]pyridine hydrochloride]
4 | 31 | Cc1c(C)n(Cc2cccc(F)c2)c2c(N3CCc4ccccc4C3)nc(C(=O)N3CCN(C)CC3)cc12 [Example 832, [7-(3,4-dihydro-1H-isoquinolin-2-yl)-1-(3-fluorobenzyl)-2,3-dimethyl-1H-pyrrolo[2,3-c]pyridin-5-yl]-(4-methylpiperazin-1-yl)-methanone hydrochloride]
5 | 460 | COc1ccc(Cn2c(C)c(C)c3ccnc(CCc4ccccc4)c32)cc1 [Example 445, 1-(4-methoxybenzyl)-2,3-dimethyl-7-phenethyl-1H-pyrrolo[2,3-c]pyridine hydrochloride]
6 | 316 | C=CCn1c(C)c(C)c2cc(C(=O)NCc3cccc(Cl)c3)nc(N3CCc4ccccc4C3)c21 [Example 758, 1-allyl-7-(3,4-dihydro-1H-isoquinolin-2-yl)-2,3-dimethyl-N-(3-chlorobenzyl)-1H-pyrrolo[2,3-c]pyridin-5-carboxamide hydrochloride]
7 | 630 | Cc1ccc(Cn2c(C)c(C)c3ccnc(NCc4ccc(Cl)cc4)c32)cc1 [Example 221, 7-(4-chlorobenzylamino)-2,3-dimethyl-1-(4-methylbenzyl)-1H-pyrrolo[2,3-c]pyridine hydrochloride]
8 | 125 | C=CCn1c(C)c(C)c2cc(C(=O)NC3CC3)nc(N3CCc4ccccc4C3)c21 [Example 761, 1-allyl-7-(3,4-dihydro-1H-isoquinolin-2-yl)-2,3-dimethyl-N-cyclopropyl-1H-pyrrolo[2,3-c]pyridin-5-carboxamide]
9 | 87 | Cc1c(C)n(Cc2ccccc2)c2c(N3CCc4ccccc4C3)nc(CN3CCN(C)CC3)cc12 [Example 883, 2-[1-benzyl-2,3-dimethyl-5-(4-methylpiperazin-1-ylmethyl)-1H-pyrrolo[2,3-c]pyridin-7-yl]-1,2,3,4-tetrahydroisoquinoline hydrochloride]
10 | 370 | CCC1c2ccccc2CCN1c1nccc2c(C)c(C)n(CCOC)c12 (stereo not drawn) [Example 585, 1-ethyl-2-[1-(2-methoxyethyl)-2,3-dimethyl-1H-pyrrolo[2,3-c]pyridin-7-yl]-1,2,3,4-tetrahydroisoquinoline hydrochloride]
11 | 410 | Cc1ccc(Cn2c(C)c(C)c3ccnc(N4CCc5ccc(F)cc5C4C)c32)cc1 (stereo not drawn) [Example 548, 2-[2,3-dimethyl-1-(4-methylbenzyl)-1H-pyrrolo[2,3-c]pyridin-7-yl]-7-fluoro-1-methyl-1,2,3,4-tetrahydroisoquinoline hydrochloride]
12 | 330 | C=Cc1ccc(-c2nccc3c(C)c(C)n(Cc4ccc(F)cc4)c23)cc1 [Example 258, 2,3-dimethyl-1-(4-fluorobenzyl)-7-(4-vinylphenyl)-1H-pyrrolo[2,3-c]pyridine hydrochloride]
13 | 330 | CCC1c2ccccc2CCN1c1nccc2c(C)c(C)n(COC)c12 (stereo not drawn) [Example 584, 1-ethyl-2-(1-methoxymethyl-2,3-dimethyl-1H-pyrrolo[2,3-c]pyridin-7-yl)-1,2,3,4-tetrahydroisoquinoline hydrochloride]
14 | 160 | CCOCCn1c(C)c(C)c2ccnc(N3CCc4ccccc4C3)c21 [Example 503, 1-(2-ethoxyethyl)-7-(1,2,3,4-tetrahydroisoquinolin-2-yl)-2,3-dimethyl-1H-pyrrolo[2,3-c]pyridine hydrochloride]
15 | 403 | Cc1[nH]c2c(N3CCc4ccccc4C3)nc(C=O)cc2c1C [Example 862, 7-(3,4-dihydro-1H-isoquinolin-2-yl)-2,3-dimethyl-1H-pyrrolo[2,3-c]pyridin-5-carbaldehyde]
16 | 170 | C=Cc1ccc(-c2nccc3c(C)c(C)n(Cc4cccc(OC)c4)c23)cc1 [Example 253, 2,3-dimethyl-1-(3-methoxybenzyl)-7-(4-vinylphenyl)-1H-pyrrolo[2,3-c]pyridine hydrochloride]
17 | 35 | CCn1c(C)c(C)c2cc(C(=O)N3CCCC3)nc(N3CCc4ccccc4C3)c21 [Example 803, [7-(3,4-dihydro-1H-isoquinolin-2-yl)-1-ethyl-2,3-dimethyl-1H-pyrrolo[2,3-c]pyridin-5-yl]-(pyrrolidin-1-yl)-methanone hydrochloride]
18 | 320 | Cc1c(C)n(CC2CC2)c2c(NCc3ccccc3)nccc12 [Example 185, 7-benzylamino-1-cyclopropylmethyl-2,3-dimethyl-1H-pyrrolo[2,3-c]pyridine hydrochloride]
19 | 90 | C=Cc1ccc(-c2nccc3c(C)c(C)n(CCOC)c23)cc1 [Example 247, 1-(2-methoxyethyl)-2,3-dimethyl-7-(4-vinylphenyl)-1H-pyrrolo[2,3-c]pyridine hydrochloride]
20 | 75 | C=CCn1c(C)c(C)c2ccnc(-c3ccc(SC)cc3)c21 [Example 263, 1-allyl-2,3-dimethyl-7-(4-methylsulfanylphenyl)-1H-pyrrolo[2,3-c]pyridine hydrochloride]
21 | 350 | Cc1[nH]c2c(N3CCc4ccc(F)cc4C3C)nccc2c1C (stereo not drawn) [Example 541, 7-fluoro-2-(2,3-dimethyl-1H-pyrrolo[2,3-c]pyridin-7-yl)-1-methyl-1,2,3,4-tetrahydroisoquinoline hydrochloride]

The remaining lines, values behind:

Row | SMILES | IC50 [nM]
22 | Cc1c(C)n(Cc2ccccc2F)c2c(-c3ccc4ccccc4c3)nccc12 [Example 409, 1-(2-fluorobenzyl)-2,3-dimethyl-7-(naphthalen-2-yl)-1H-pyrrolo[2,3-c]pyridine hydrochloride] | 93
23 | Cc1c(C)n(Cc2ccccc2)c2c(COc3ccc(Cl)cc3)nccc12 [Example 43, 1-benzyl-7-(4-chlorophenoxymethyl)-2,3-dimethyl-1H-pyrrolo[2,3-c]pyridine hydrochloride] | 130
24 | COc1cccc(Cn2c(C)c(C)c3cc(C(=O)N4CCOCC4)nc(N4CCc5ccccc5C4)c32)c1 [Example 780, [7-(3,4-dihydro-1H-isoquinolin-2-yl)-1-(3-methoxybenzyl)-2,3-dimethyl-1H-pyrrolo[2,3-c]pyridin-5-yl]-(morpholin-4-yl)-methanone hydrochloride] | 125
25 | Cc1c(C)n(Cc2cccc(F)c2)c2c(CNc3ccc(F)cc3)nccc12 [Example 91, N-[1-(3-fluorobenzyl)-2,3-dimethyl-1H-pyrrolo[2,3-c]pyridin-7-ylmethyl]-4-fluorophenylamine hydrochloride] | 209
26 | C=CCn1c(C)c(C)c2ccnc(N3CCc4ccccc4C3)c21 [Example 491, 1-allyl-7-(1,2,3,4-tetrahydroisoquinolin-2-yl)-2,3-dimethyl-1H-pyrrolo[2,3-c]pyridine maleate] | 2
27 | CCc1[nH]c2c(N3CCc4ccccc4C3)nccc2c1C [Example 591, 2-ethyl-3-methyl-7-(1,2,3,4-tetrahydroisoquinolin-2-yl)-1H-pyrrolo[2,3-c]pyridine] | 499
28 | Cc1ccc(Cn2c(C)c(C)c3ccnc(COc4ccc(F)cc4)c32)cc1 [Example 5, 7-(4-fluorophenoxymethyl)-2,3-dimethyl-1-(4-methylbenzyl)-1H-pyrrolo[2,3-c]pyridine hydrochloride] | 450
29 | CCC1c2ccccc2CCN1c1nccc2c(C)c(C)n(CC)c12 (stereo not drawn) [Example 576, 1-ethyl-2-(1-ethyl-2,3-dimethyl-1H-pyrrolo[2,3-c]pyridin-7-yl)-1,2,3,4-tetrahydroisoquinoline hydrochloride] | 220
30 | Cc1cccc(Cn2c(C)c(C)c3ccnc(CN(C)c4ccc(F)cc4)c32)c1 [Example 126, N-[2,3-dimethyl-1-(3-methylbenzyl)-1H-pyrrolo[2,3-c]pyridin-7-ylmethyl]-N-(4-fluorophenyl)-methylamine hydrochloride] | 397
31 | COc1cccc(Cn2c(C)c(C)c3cc(N)nc(N4CCc5ccccc5C4)c32)c1 [Example 848, 7-(3,4-dihydro-1H-isoquinolin-2-yl)-1-(3-methoxybenzyl)-2,3-dimethyl-1H-pyrrolo[2,3-c]pyridin-5-amine hydrochloride] | 29
32 | C=CCn1c(C)c(C)c2cc(C(=O)NCc3ccc4c(c3)OCO4)nc(N3CCc4ccccc4C3)c21 [Example 760, 1-allyl-7-(3,4-dihydro-1H-isoquinolin-2-yl)-2,3-dimethyl-N-(benzo[1,3]dioxol-5-ylmethyl)-1H-pyrrolo[2,3-c]pyridin-5-carboxamide hydrochloride] | 373
33 | C=CCn1c(C)c(C)c2ccnc(N3CCc4ccccc4C3)c21 [Example 487, 1-allyl-7-(1,2,3,4-tetrahydroisoquinolin-2-yl)-2,3-dimethyl-1H-pyrrolo[2,3-c]pyridine methanesulfonate] | 4
34 | COc1ccc(Cn2c(C)c(C)c3cc(C(=O)N4CCN(C)CC4)nc(N4CCc5ccccc5C4)c32)cc1 [Example 829, [7-(3,4-dihydro-1H-isoquinolin-2-yl)-1-(4-methoxybenzyl)-2,3-dimethyl-1H-pyrrolo[2,3-c]pyridin-5-yl]-(4-methylpiperazin-1-yl)-methanone hydrochloride] | 79
35 | COc1ccc(Cn2c(C)c(C)c3ccnc(N4CCc5cc(F)ccc5C4C)c32)cc1 (stereo not drawn) [Example 566, 6-fluoro-2-[1-(4-methoxybenzyl)-2,3-dimethyl-1H-pyrrolo[2,3-c]pyridin-7-yl]-1-methyl-1,2,3,4-tetrahydroisoquinoline hydrochloride] | 300
36 | C#CCn1c(C)c(C)c2ccnc(-c3ccc(C=C)cc3)c21 [Example 249, 2,3-dimethyl-1-(prop-2-ynyl)-7-(4-vinylphenyl)-1H-pyrrolo[2,3-c]pyridine hydrochloride] | 50
